Test results as given in patent US11352400B2, “PI3K gamma inhibitor peptide for treatment of respiratory system diseases” (Kither Biotech S.r.I., priority 2014, dated 2022).

Key:
hBSMCs = assay: Measurements of calcium transients (Indo-1) in hBSMCs; type: cell-based, human; details: 50 μM, 30 minutes
Experimental: Cells were washed with a Tyrode solution containing (in mmol/L): 5 HEPES, 154 NaCl, 4 KCl, 2 CaCl2, 1 MgCl2, 5.5 D-glucose, at pH 7.35 and placed on an inverted microscope. Cells were kept in Tyrode solution and treated with a KCl depolarizing solution containing (in mmol/L): 5 HEPES, 118 NaCl, 40 KCl, 2 CaCl2, 1 MgCl2, 5.5 D-glucose, at pH 7.35. Calcium transients were analyzed as the ratio of fluorescence signals measured at 400 nm and 490 nm following excitation of Indo-1-AM-loaded cells at 350 nm. Experiments were recorded and analyzed with Igor® Software, using the functions added by Jason Rothman (Neuromatic, www.thinkrandom.com).

[1] = system: Cav1.2 subunit (Ser-1928) of the L-type calcium channel (LTCC); assay: Western blot of cAMP-dependent phosphorylation of Cav1.2 in hBSMCs; type: cell-based, human; details: 50 μM, 30 minutes, vs vehicle or P1
Experimental: For protein extraction from murine tracheal smooth muscle cells (mTSMCs) and human bronchial smooth muscle cells (hBSMCs), cells were treated with the indicated drugs/peptides and immediately lysed in cold lysis buffer containing 120 mmol/L NaCl, 50 mmol/L Tris-HCl (pH 8.0), complete protease inhibitors (Roche Applied Science, Indianapolis, Ind.) and phosphatase inhibitors (50 mmol/L sodium fluoride, 1 mmol/L sodium orthovanadate and 10 mmol/L sodium pyrophosphate). After 30 min of incubation on ice, lysates were centrifuged at 13000 rpm for 10 min at 4° C. and used for either Western blotting or subjected to immunoprecipitation and measurements of phosphodiesterase activity.

[2] = system: ovalbumin (OVA)-induced asthma mice; assay: Airway hyperresponsiveness (tidal volume) in ovalbumin-induced asthma model; type: in vivo, BALB/C mice; details: OVA-sensitized mice; 150 μg intra-tracheal, 30 minutes before methacholine; vs PBS or P1
Experimental: Ovalbumin (100 μg) (OVA, Sigma-Aldrich, St. Louis, Mo.), complexed with aluminum potassium sulfate (1 mg, alum) was administered intraperitoneally (i.p.) on days 1 and 14, and intra-nasally (i.n.) (50 μg OVA in 50 μl PBS) on days 14, 25, 26, and 27. Control mice received i.p. injections of alum and i.n. injections of PBS only. Airway hyperreactivity induced by inhaled methacholine was measured at 24 hours after the final dose of OVA (Day 28).
Method 2: Mice sensitized to ovalbumin were treated, by intra-tracheal instillation, with 70 μL of phosphate-buffered saline solution (PBS) containing vehicle or 150 μg of the Trojan peptide derived from PI3Kγ or equimolar amounts of P1 control peptide. Airway hyperresponsiveness was assessed at 30 minutes after the treatment according to a previously published protocol (6). […] The airway opening pressure (Pao), proximal to the endotracheal tube, and the pressure inside the chamber were measured with pressure transducers (Special Instruments, Digima Clic; Nordlingen, Germany). Gas flow was measured with a pneumotachograph (Special Instruments, Digima Clic; Nordlingen, Germany). Tidal volume was calculated as the integral of the flow signal. Variables of mechanical ventilation were recorded using the ICU-Lab software (KleisTEK Advanced Electronic Systems, Bari, Italy). […]

wild-type CFTR = assay: Chloride currents in Ussing chamber, NuLi-1 cells; type: cell-based, human; details: peptide 10-30 μM, P1 30 μM
Experimental: (§1) Human airway epithelial cell lines expressing a wild-type CFTR (NuLi-1) or with the ΔF508 mutation (CuFi-1) were purchased from ATCC (NuLi-1 product code: ATCC® CRL-4011™; CuFi-1 product code: ATCC® CRL-4013™). Cells were cultured in Dulbecco's Modified Eagle Medium (DMEM, Gibco, Carlsbad, Calif.) supplemented with 10% fetal bovine serum (FBS), 30 μg/mL of penicillin, 100 μg/mL of streptomycin and 300 μg/mL hygromycin B (Gibco, Carlsbad, Calif.).
(§2) To measure chloride currents in normal and ΔF508 primary human bronchial epithelial cells, cells were cultured on 1.12 cm^2 Snapwell inserts. Filters were mounted in Ussing chambers, and a chloride gradient was applied by incubating the cells in a basolateral high-chloride buffer containing (in mmol/L): 140 NaCl, 5 KCl, 0.36 K2HPO4, 0.44 KH2PO4, 1.3 CaCl2, 0.5 MgCl2, 4.2 NaHCO3, 10 HEPES, and 10 glucose, at pH 7.4 and an apical low-chloride buffer containing (in mmol/L): 133.3 Na-gluconate, 5 K-gluconate, 2.5 NaCl, 0.36 K2HPO4, 0.44 KH2PO4, 5.7 CaCl2, 0.5 MgCl2, 4.2 NaHCO3, 10 HEPES, and 10 mannitol, at pH 7.4. Buffers were aerated with a mixture of 95% O2 and 5% CO2 and the temperature was maintained at 37° C. during the experiment. […] After a stabilization period of 30 minutes, drugs were added at specific times, while the current was continuously recorded.

ΔF508-CFTR = assay: Chloride currents in Ussing chamber, CuFi-1 cells; type: cell-based, human; details: CuFi-1 cells corrected with VX-809 (20 μM, 24 hours); peptide 10 μM in the presence of VX-770 10 μM
Experimental: as §1, §2

Q: Which results are given for “RQIKIWFQNRRMKWKKGKATHRSPGQIHLVQRHPPSEESQAF (fusion peptide comprising SEQ ID No.1 and SEQ ID No.3) [Trojan peptide derived from PI3Kγ]”?
A: influx of Ca2+ induced by KCl (through VOCCs) (hBSMCs; 40 mM KCl depolarizing solution): completely abolished; maximum peak of Ca2+ transients induced by carbachol (hBSMCs; carbachol 10 μM, vs vehicle or P1): significantly lower; cAMP-mediated phosphorylation of Cav1.2 [1]: significantly higher; reduction of the tidal volume induced by methacholine [2]: significantly attenuated; CFTR-dependent Cl− currents (wild-type CFTR): increased significantly; increase of the CFTR currents over basal activity (ΔF508-CFTR): about 5 fold
